Data from article PMC3466212, “Novel AChE Inhibitors for Sustainable Insecticide Resistance Management” (PLoS ONE, 2012).
Like-named read-outs stand apart in the source and are kept apart here.

Columns and labels:
[1] = system: C. pipiens Slab strain larvae; experiment: Larval bioassay, Slab strain (OP-susceptible); settings: for LD50 Slab: C. pipiens OP-susceptible ace-1 S/S larvae, four to five replicates; for Mortality at 300 µM, Slab: fourth-instar larvae, 24 hours exposure
Text: (§1) Three C. pipiens strains were used: the susceptible reference Slab strain, homozygous for ace-1 ^S [39], the resistant reference SR strain, carrying the genetical background of Slab but homozygous for the G119S mutation, allele ace-1 ^R [21] and the Ducos strain, carrying the genetical background of Slab but homozygous for an ace-1 duplication, with one ace-1^S and ace-1^R copy in tandem. Culex pipiens heterozygous larvae (Slab×SR) were obtained by crossing Slab males and SR females. Two A. gambiae reference strains (S molecular form) were used: the susceptible strain Kisumu, homozygous for ace-1 ^S, collected in Kenya in 1953 and maintained since then under laboratory conditions and the resistant Acerkis strain, carrying the genetical background of Kisumu but homozygous for an ace-1^R allele from a population collected in Bobo-Dioulasso, Burkina Faso [41].
(§2) Insecticidal activity was determined by performing bioassays on fourth-instar larvae as described in [42]. Each compound was dissolved in ethanol. Propoxur (CX) and chlorpyrifos (OP) were used as references. For each compound, we first tested mortality after a 24-hour exposure at 300 µM. […] Mortality data were analyzed by the log-probit program. This program takes into account natural mortality and provides lethal doses (LD) and slopes for each mortality line; it also computes resistance ratios (RR) for each LD, with 95% confidence intervals.

[2] = system: C. pipiens SR strain larvae; experiment: Larval bioassay, SR strain (OP-resistant); settings: for LD50 SR: C. pipiens OP-resistant ace-1 R/R larvae; for Mortality at 300 µM, SR: fourth-instar larvae, 24 hours exposure
Text: Three C. pipiens strains were used: the susceptible reference Slab strain, homozygous for ace-1 ^S [39], the resistant reference SR strain, carrying the genetical background of Slab but homozygous for the G119S mutation, allele ace-1 ^R [21] and the Ducos strain, carrying the genetical background of Slab but homozygous for an ace-1 duplication, with one ace-1^S and ace-1^R copy in tandem. Culex pipiens heterozygous larvae (Slab×SR) were obtained by crossing Slab males and SR females.
Insecticidal activity was determined by performing bioassays on fourth-instar larvae as described in [42]. Each compound was dissolved in ethanol. Propoxur (CX) and chlorpyrifos (OP) were used as references. For each compound, we first tested mortality after a 24-hour exposure at 300 µM. […] Mortality data were analyzed by the log-probit program.

[3] = system: C. pipiens Ducos strain larvae; experiment: Larval bioassay, Ducos strain (ace-1 duplication); type: in vivo, Culex pipiens; settings: C. pipiens OP-resistant ace-1 D (duplication) larvae
Text: as §1, §2

[4] = system: C. pipiens F1 (SR×Slab) heterozygous larvae; experiment: Larval bioassay, heterozygous F1 (SR×Slab); type: in vivo, Culex pipiens; settings: C. pipiens heterozygous ace-1 R/ace-1 S larvae
Text: as §1, §2

[5] = system: A. gambiae Kisumu strain larvae; experiment: Larval bioassay, Kisumu strain (OP-susceptible); type: in vivo, Anopheles gambiae; settings: A. gambiae OP-susceptible ace-1 S/S larvae
Text: as §1, §2

[6] = system: A. gambiae Acerkis strain larvae; experiment: Larval bioassay, Acerkis strain (OP-resistant); type: in vivo, Anopheles gambiae; settings: A. gambiae OP-resistant ace-1 R/R larvae
Text: as §1, §2

G119S AChE1 [7] = target: T1, G119S AChE1 (Culex pipiens, UniProt Q86GC8, G247S); experiment: biochemical; type: biochemical
T1 construct: made in house; host or cells: Drosophila S2 cells
Description: Production of C. pipiens WT and mutated AChE1s in Drosophila S2 cells was already described. The chemical library (ChemBridge, 3,000 compounds) screening was performed in duplicate on G119S recombinant AChE1. Chemicals were made soluble in ethanol or dimethylsulphoxide (DMSO), and then diluted at 300 µM in ethanol for storage. […] PTF analogs were analyzed in dose-response experiments (10-fold serial dilutions from 3 mM to 30 nM), using recombinant WT and G119S AChE1 or mosquito head extracts (heads cut from frozen mosquitoes, homogenized in 400 µl PB containing 1% Triton X-100 and cleared by centrifugation at 9,000×g for 3 min). Depending on compound availability, two to five replicates were performed with distinct batches of enzyme. […] IC50 was estimated by nonlinear least square regression. IC50 was also measured on AChE1 from susceptible and resistant mosquito larvae extracts.

F290V AChE1 = target: T2, F290V AChE1 (Culex pipiens, UniProt Q86GC8, F416V); type: biochemical; settings: F290V OP-insensitive AChE1
T2 construct: made in house; host or cells: Drosophila S2 cells
Description: (§3) Production of C. pipiens WT and mutated AChE1s in Drosophila S2 cells was already described. The chemical library (ChemBridge, 3,000 compounds) screening was performed in duplicate on G119S recombinant AChE1. Chemicals were made soluble in ethanol or dimethylsulphoxide (DMSO), and then diluted at 300 µM in ethanol for storage. Compounds (30 µM final concentration) were incubated for 15 min at room temperature with 100 µl of G119S recombinant AChE1 then 100 µl of substrate (acetylthiocholine, 1.6 mM, Sigma-Aldrich) was added and the residual activity was quantified by measuring the optical density at 412 nm, as described by Ellman et al.. PTF analogs were analyzed in dose-response experiments (10-fold serial dilutions from 3 mM to 30 nM), using recombinant WT and G119S AChE1 or mosquito head extracts (heads cut from frozen mosquitoes, homogenized in 400 µl PB containing 1% Triton X-100 and cleared by centrifugation at 9,000×g for 3 min). Depending on compound availability, two to five replicates were performed with distinct batches of enzyme. […] IC50 was estimated by nonlinear least square regression. IC50 was also measured on AChE1 from susceptible and resistant mosquito larvae extracts.
(§4) a numbers refer to Table S1
(§5) b IC50 values were determined from regression analysis of log-concentrations versus

F331W AChE1 = target: T3, F331W AChE1 (Culex pipiens, UniProt Q86GC8, F457W); type: biochemical; settings: F331W OP-insensitive AChE1
T3 construct: made in house; host or cells: Drosophila S2 cells
Description: as §3, §4, §5

WT AChE1 [8] = target: T4, WT AChE1 (Culex pipiens, UniProt Q86GC8); settings: read-out: Kic WT; dissociation constant of enzyme-inhibitor complex; five independent replicates
Description: (§6) To identify inhibitors of G119S AChE1, we screened a 3,000-compound chemical library using an assay adapted to a microplate format, [26]. […] For simplification, these compounds will be termed from now as PTF (PyrimidineTrione Furan-substituted) and were classified depending on the substituted positions (Table S1).
(§7) WT and G119S recombinant AChE1s were incubated with 0.25 mM, 0.5 mM or 1 mM inhibitor. Residual activity of G119S (A and C) and WT (B and D) AChE1 was measured in the presence of various concentrations of PTF-20 and substrates. Enzymatic activity was analyzed using the graphical method developed by Dixon, representing reciprocal rates (1/v) (A and B) or reciprocal rates multiplied by substrate concentrations ([S]/v) (C and D) as a function of inhibitor concentration. (PDF) Click here for additional data file.
(§8) Table S3. Dissociation constants (Kic) of enzyme-inhibitor complexes.
as §4
(§9) b data were measured from five independent replicates.
(§10) c competitive inhibitor reference

G119S AChE1 [9] = target: T1, G119S AChE1; type: biochemical; settings: dissociation constant of enzyme-inhibitor complex; five independent replicates; read-out: Kic G119S
Description: as §6
Reversibility was tested using a rapid dilution procedure. Residual activity of WT (white bars) and G119S (grey bars) AChE1 were measured after 15 min incubation in presence of inhibitors (striped bars) and are expressed as percentages of control activity. […] Assays were then diluted ten times and residual activity was measured (open bars). Means and standard errors for three independent experiments are shown. (PDF) Click here for additional data file.
as §7, §8, §4, §9, §10

WT AChE1 [10] = target: T4, WT AChE1; experiment: AChE assay (Ellman), dose-response on recombinant WT AChE1; type: biochemical; design: made in house; host or cells: Drosophila S2 cells
Description: as §3

[11] = recombinant OP-insensitive G119S C. pipiens AChE1, 15 min incubation, acetylthiocholine, read-out: IC50 G119S
[12] = recombinant wild-type C. pipiens AChE1, 15 min incubation, acetylthiocholine, read-out: IC50 WT

| SMILES | IC50 (G119S AChE1 [7]; [11]) [µM] | Mortality at 300 µM, Slab [1] [%] | Mortality at 300 µM, SR [2] [%] | IC50 (WT AChE1 [10]; [12]) [µM] | also measured |
| --- | --- | --- | --- | --- | --- |
| CCOP(=S)(OCC)Oc1nc(Cl)c(Cl)cc1Cl [Chlorpyrifos, reference compound] | – | – | – | – | LD50 Slab [1]: 0.00019 µM; LD50 SR [2]: 0.021 µM; LD50 Ducos [3]: 0.0022 µM; LD50 F1 (SR×Slab) [4]: 0.0015 µM; LD50 Kisumu [5]: 0.00095 µM; LD50 Acerkis [6]: 0.6 µM |
| Cc1ccc(C=C2C(=O)NC(=O)N(c3ccccc3)C2=O)o1 [PTF-3] | 6.2 | 43 | 78 | 29.4 | IC50 (F290V AChE1): 12.4 µM; IC50 (F331W AChE1): 17.8 µM; LD50 Slab [1]: 310.0 µM; LD50 SR [2]: 143.0 µM; LD50 Ducos [3]: 162.1 µM; LD50 F1 (SR×Slab) [4]: 151.3 µM; LD50 Kisumu [5]: 109.7 µM; LD50 Acerkis [6]: 86.6 µM; Ki (WT AChE1 [8]): 127 ± 2.8 µM; Ki (G119S AChE1 [9]): 21.8 ± 1.9 µM |
| Cc1ccc(C=C2C(=O)NC(=O)N(c3ccc(Cl)cc3)C2=O)o1 [PTF-20] | 27.5 | 43 | 94 | 330 | IC50 (F290V AChE1): 14.5 µM; IC50 (F331W AChE1): 8.3 µM; LD50 Slab [1]: 762.0 µM; LD50 SR [2]: 194.0 µM; Ki (WT AChE1 [8]): 56.1 ± 1.8 µM; Ki (G119S AChE1 [9]): 5.6 ± 0.1 µM |
| Cc1ccc(C=C2C(=O)N(C)C(=O)N(C)C2=O)o1 [PTF-39] | 7.6 | 29 | 81 | 74.3 | IC50 (F290V AChE1): 13.9 µM; IC50 (F331W AChE1): 8.7 µM; LD50 Slab [1]: 576.0 µM; LD50 SR [2]: 200.0 µM; LD50 Ducos [3]: 201.9 µM; LD50 F1 (SR×Slab) [4]: 110.0 µM; Ki (WT AChE1 [8]): 130 ± 9.2 µM; Ki (G119S AChE1 [9]): 41.9 ± 2.3 µM |
| O=C1NC(=O)N(c2ccccc2)C(=O)C1=Cc1ccc(-c2ccccc2C(=O)O)o1 [PTF-59] | 18.5 | 0 | 0 | 45.7 | – |
| O=C1NC(=O)N(c2ccccc2)C(=O)C1=Cc1ccc(Sc2ccccc2)o1 [PTF-60] | 1.1 | 50 | 50 | 7.7 | – |
| O=C1NC(=O)N(c2ccccc2)C(=O)C1=Cc1ccc(N2CCCCC2)o1 [PTF-61] | 1500 | 0 | 0 | 124 | – |
| O=C1NC(=O)N(c2ccccc2)C(=O)C1=Cc1ccc(N2CCOCC2)o1 [PTF-62] | 345 | 0 | 0 | 197 | – |
| O=C1NC(=S)N(c2ccccc2)C(=O)C1=Cc1ccco1 [PTF-63] | 98 | 0 | 0 | 151 | – |
| N=C1NC(=O)C(=Cc2ccco2)C(=O)N1c1ccccc1 [PTF-64] | 49.5 | 0 | 0 | 56 | – |
| CC(C)(C)N=C1NC(=O)C(=Cc2ccco2)C(=O)N1c1ccccc1 [PTF-65] | 22 | 0 | 0 | 37 | – |
| C=CCN1C(=O)NC(=O)C(=Cc2ccc(C)s2)C1=O [PTF-66] | 51 | 63 | 100 | 91.6 | – |
| O=C1NC(=O)N(c2ccccc2)C(=O)C1=Cc1cccs1 [PTF-67] | 11.2 | 0 | 0 | 9.1 | – |
| Cc1ccc(C=C2C(=O)NC(=O)N(c3ccccc3)C2=O)s1 [PTF-68] | 5 | 89 | 95 | 4 | – |
| O=C1NC(=O)N(c2ccccc2)C(=O)C1=Cc1ccc(-c2cccc(C(=O)O)c2)s1 [PTF-69] | 4.6 | 0 | 0 | 43.9 | – |
| O=C1NC(=O)N(c2ccccc2)C(=O)C1=Cc1ccc(N2CCCCC2)s1 [PTF-70] | 6.2 | 0 | 0 | 18 | – |
| O=C1NC(=O)N(c2ccccc2)C(=O)C1=Cc1ccc(N2CCOCC2)s1 [PTF-71] | 2480 | 0 | 0 | 4500 | – |
| CNC(=O)Oc1ccccc1OC(C)C [Propoxur, reference compound] | – | – | – | – | IC50 (G119S AChE1 [7]): 26500 µM; LD50 Slab [1]: 1.6 µM; mortality at 300 µM ([1]; Culex pipiens, 24 h, read-out: Mortality at 300 µM, Slab): 100%; LD50 SR [2]: 2100 µM; mortality at 300 µM ([2]; Culex pipiens, 24 h, read-out: Mortality at 300 µM, SR): 0%; LD50 Ducos [3]: 56.7 µM; LD50 F1 (SR×Slab) [4]: 2.3 µM; LD50 Kisumu [5]: 0.1 µM; LD50 Acerkis [6]: 689.6 µM; IC50 (WT AChE1 [10]): 0.3 µM |
